Laboratory results taken from PMC8920385, “Design, synthesis and biological evaluation of a series of dianilinopyrimidines as EGFR inhibitors” (Journal of Enzyme Inhibition and Medicinal Chemistry, 2022).

What was measured:
PC-3 cells = assay: Cytotoxicity evaluation (MTT assay), PC-3; format: cell-based; conditions: Homo sapiens, mean ± SD of three replicates
L02 cells = assay: Cytotoxicity evaluation (MTT assay), L02 normal cells; conditions: Homo sapiens, L02, read-out: IC50 L02
Method: Three tumour cells with high expression of EGFR^wt were used to test the antitumor activity of the compounds including, A549 (Human non-small-cell lung cancer cell line) cells, PC-3 (Human prostate cancer cell line) cells, and HepG2 (Human hepatocellular carcinomas cell line) cells. They were all purchased from the Shanghai Cell Bank of the Chinese Academy of Sciences. L02 (normal human liver cell line) cells were also used to evaluate the cytotoxicity. […] The IC50 values were calculated from the dose − response curve under Graph-Pad Prism.

HepG2 cells = assay: Cytotoxicity evaluation (MTT assay), HepG2; format: cell-based; conditions: Homo sapiens, mean ± SD of three replicates
[1] = target: T1, wild type EGFR tyrosine kinase (EGFR^wt) (Homo sapiens, UniProt P00533); assay: In vitro EGFR^wt-TK assay (ELISA); format: biochemical; conditions: mean ± SD of three replicates; for inhibition at 1 µM: read-out: EGFR^wt-TK inhibition rate; for inhibition at 1 µM / EGFR^wt-TK inhibition rate: 1 μM
T1 construct: purchased PTM Bio; Co., Ltd
T1 sequence (P00533 25-1210): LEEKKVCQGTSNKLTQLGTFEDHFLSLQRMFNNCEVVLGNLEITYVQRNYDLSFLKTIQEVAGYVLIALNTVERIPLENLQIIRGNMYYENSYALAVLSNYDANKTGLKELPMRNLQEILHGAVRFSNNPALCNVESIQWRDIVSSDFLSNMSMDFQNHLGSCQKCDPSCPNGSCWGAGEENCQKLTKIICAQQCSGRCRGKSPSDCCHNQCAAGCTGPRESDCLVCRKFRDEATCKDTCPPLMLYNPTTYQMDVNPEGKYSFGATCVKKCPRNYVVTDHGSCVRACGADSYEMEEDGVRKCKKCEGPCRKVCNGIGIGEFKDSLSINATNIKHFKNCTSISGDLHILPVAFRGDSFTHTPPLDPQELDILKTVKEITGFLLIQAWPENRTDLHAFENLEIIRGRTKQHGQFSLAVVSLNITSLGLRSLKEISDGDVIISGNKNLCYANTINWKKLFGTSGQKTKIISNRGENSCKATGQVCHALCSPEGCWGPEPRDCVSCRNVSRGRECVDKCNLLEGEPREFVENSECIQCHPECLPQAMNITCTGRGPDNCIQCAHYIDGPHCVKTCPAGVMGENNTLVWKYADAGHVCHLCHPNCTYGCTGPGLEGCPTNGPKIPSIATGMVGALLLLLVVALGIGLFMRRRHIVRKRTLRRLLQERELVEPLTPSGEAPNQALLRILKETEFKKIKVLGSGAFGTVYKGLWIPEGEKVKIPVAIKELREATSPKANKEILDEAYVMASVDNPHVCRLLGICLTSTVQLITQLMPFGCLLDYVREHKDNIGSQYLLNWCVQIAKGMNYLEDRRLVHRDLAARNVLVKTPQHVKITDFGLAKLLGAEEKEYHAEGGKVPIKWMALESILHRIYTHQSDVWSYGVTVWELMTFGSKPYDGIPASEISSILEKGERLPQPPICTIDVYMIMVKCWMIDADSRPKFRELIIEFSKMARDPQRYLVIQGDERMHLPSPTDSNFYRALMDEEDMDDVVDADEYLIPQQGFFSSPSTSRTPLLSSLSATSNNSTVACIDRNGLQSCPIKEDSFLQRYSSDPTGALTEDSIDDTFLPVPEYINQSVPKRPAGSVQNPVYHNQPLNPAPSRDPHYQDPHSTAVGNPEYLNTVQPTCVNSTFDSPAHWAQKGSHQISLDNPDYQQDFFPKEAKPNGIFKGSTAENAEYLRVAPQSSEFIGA

A549 cells = assay: Cytotoxicity evaluation (MTT assay), A549; format: cell-based; conditions: Homo sapiens, mean ± SD of three replicates

| SMILES | melting point | inhibition at 1 µM [1] | EGFR^wt-TK inhibition rate [1] | IC50 [1] | IC50 (PC-3 cells) | IC50 (L02 cells) | IC50 (HepG2 cells) | IC50 (A549 cells) |
| --- | --- | --- | --- | --- | --- | --- | --- | --- |
| CNC(=O)c1ccsc1Nc1nc(Nc2ccc(NC(=O)c3ccc(OC)cc3)cc2)ncc1C(F)(F)F [4a, 2-{2-[4-(4-Methoxy-benzoylamino)-phenylamino]-5-trifluoromethyl-pyrimidin-4-ylamino}-thiophene-3-carboxylic acid methylamide] | > 250 °C | 31.6 ± 3.27% | – | – | 12.3 ± 0.89 µM | > 40 µM | 11.5 ± 0.77 µM | 9.32 ± 0.68 µM |
| CNC(=O)c1ccsc1Nc1nc(Nc2ccc(NC(=O)c3ccccc3F)cc2)ncc1C(F)(F)F [4b, 2-{2-[4-(2-Fluoro-benzoylamino)-phenylamino]-5-trifluoromethyl-pyrimidin-4-ylamino}-thiophene-3-carboxylic acid methylamide] | 224.8 to 226.3 °C | > 50% | 52.08 ± 1.93% | 0.89 ± 0.12 µM | 7.81 ± 0.53 µM | > 40 µM | 7.62 ± 0.46 µM | 4.33 ± 0.59 µM |
| CNC(=O)c1ccsc1Nc1nc(Nc2ccc(NC(=O)c3ccc(F)cc3)cc2)ncc1C(F)(F)F [4d, 2-{2-[4-(4-Fluoro-benzoylamino)-phenylamino]-5-trifluoromethyl-pyrimidin-4-ylamino}-thiophene-3-carboxylic acid methylamide] | 233.5 to 235.3 °C | 7.59 ± 0.25% | – | – | > 20 µM | > 40 µM | > 20 µM | > 20 µM |
| CNC(=O)c1ccsc1Nc1nc(Nc2ccc(NC(=O)c3ccc(F)c(F)c3)cc2)ncc1C(F)(F)F [4e, 2-{2-[4-(3,4-Difluoro-benzoylamino)-phenylamino]-5-trifluoromethyl-pyrimidin-4-ylamino}-thiophene-3-carboxylic acid methylamide] | 244.3 to 245.9 °C | 27.9 ± 1.34% | – | – | > 20 µM | > 40 µM | > 20 µM | > 20 µM |
| CNC(=O)c1ccsc1Nc1nc(Nc2ccc(NC(=O)c3cccc(C(F)(F)F)c3)cc2)ncc1C(F)(F)F [4f, 2-{5-Trifluoromethyl-2-[4-(3-trifluoromethyl-benzoylamino)-phenylamino]-pyrimidin-4-ylamino}-thiophene-3-carboxylic acid methylamide] | > 250 °C | 30.8 ± 1.09% | – | – | 8.51 ± 0.64 µM | > 40 µM | 8.36 ± 0.49 µM | 6.14 ± 0.78 µM |

Now from value to compound, other results behind:

| melting point | inhibition at 1 µM [1] | EGFR^wt-TK inhibition rate [1] | IC50 [1] | SMILES | IC50 (PC-3 cells) | IC50 (L02 cells) | IC50 (HepG2 cells) | IC50 (A549 cells) |
| --- | --- | --- | --- | --- | --- | --- | --- | --- |
| > 250 °C | 15.3 ± 0.48% | – | – | CCCNc1c(Nc2ccc(Nc3ncc(C(F)(F)F)c(Nc4sccc4C(=O)NC)n3)cc2)c(=O)c1=O [6a, 2-{2-[4-(3,4-Dioxo-2-propylamino-cyclobut-1-enylamino)-phenylamino]-5-trifluoromethyl-pyrimidin-4-ylamino}-thiophene-3-carboxylic acid methylamide] | > 20 µM | > 40 µM | > 20 µM | > 20 µM |
| > 250 °C | 17.4 ± 0.32% | – | – | CCCCCCNc1c(Nc2ccc(Nc3ncc(C(F)(F)F)c(Nc4sccc4C(=O)NC)n3)cc2)c(=O)c1=O [6b, 2-{2-[4-(2-Hexylamino-3,4-dioxo-cyclobut-1-enylamino)-phenylamino]-5-trifluoromethyl-pyrimidin-4-ylamino}-thiophene-3-carboxylic acid methylamide] | > 20 µM | > 40 µM | > 20 µM | > 20 µM |
| > 250 °C | 16.6 ± 0.21% | – | – | CNC(=O)c1ccsc1Nc1nc(Nc2ccc(Nc3c(NCCO)c(=O)c3=O)cc2)ncc1C(F)(F)F [6c, 2–(2-{4-[2-(2-Hydroxy-ethylamino)-3,4-dioxo-cyclobut-1-enylamino]-phenylamino}-5-trifluoromethyl-pyrimidin-4-ylamino)-thiophene-3-carboxylic acid methylamide] | > 20 µM | > 40 µM | > 20 µM | > 20 µM |
| > 250 °C | 29.1 ± 1.03% | – | – | CNC(=O)c1ccsc1Nc1nc(Nc2ccc(Nc3c(NC(C)C)c(=O)c3=O)cc2)ncc1C(F)(F)F [6d, 2-{2-[4-(2-Isopropylamino-3,4-dioxo-cyclobut-1-enylamino)-phenylamino]-5-trifluoromethyl-pyrimidin-4-ylamino}-thiophene-3-carboxylic acid methylamide] | > 20 µM | > 40 µM | 14.1 ± 1.28 µM | 10.1 ± 1.96 µM |
| > 250 °C | > 50% | 53.17 ± 3.05% | 0.74 ± 0.1 µM | CNC(=O)c1ccsc1Nc1nc(Nc2ccc(Nc3c(NC4CCCC4)c(=O)c3=O)cc2)ncc1C(F)(F)F [6e, 2-{2-[4-(2-Cyclopentylamino-3,4-dioxo-cyclobut-1-enylamino)-phenylamino]-5-trifluoromethyl-pyrimidin-4-ylamino}-thiophene-3-carboxylic acid methylamide] | 9.24 ± 0.86 µM | > 40 µM | 9 ± 0.78 µM | 7.14 ± 0.92 µM |
| > 250 °C | 34.1 ± 1.29% | – | – | CNC(=O)c1ccsc1Nc1nc(Nc2ccc(Nc3c(NC4CCCCC4)c(=O)c3=O)cc2)ncc1C(F)(F)F [6f, 2-{2-[4-(2-Cyclohexylamino-3,4-dioxo-cyclobut-1-enylamino)-phenylamino]-5-trifluoromethyl-pyrimidin-4-ylamino}-thiophene-3-carboxylic acid methylamide] | > 20 µM | > 40 µM | > 20 µM | 18.1 ± 2.45 µM |
| > 250 °C | 9.27 ± 0.25% | – | – | CNC(=O)c1ccsc1Nc1nc(Nc2ccc(Nc3c(NC4CCC(O)CC4)c(=O)c3=O)cc2)ncc1C(F)(F)F (stereo not drawn) [6g, 2-(2-{4-[2–(4-Hydroxy-cyclohexylamino)-3,4-dioxo-cyclobut-1-enylamino]-phenylamino}-5-trifluoromethyl-pyrimidin-4-ylamino)-thiophene-3-carboxylic acid methylamide] | > 20 µM | > 40 µM | > 20 µM | > 20 µM |
| > 250 °C | 10.6 ± 0.93% | – | – | CNC(=O)c1ccsc1Nc1nc(Nc2ccc(Nc3c(NC4CCN(C)CC4)c(=O)c3=O)cc2)ncc1C(F)(F)F [6h, 2-(2-{4-[2-(1-Methyl-piperidin-4-ylamino)-3,4-dioxo-cyclobut-1-enylamino]-phenylamino}-5-trifluoromethyl-pyrimidin-4-ylamino)-thiophene-3-carboxylic acid methylamide] | > 20 µM | > 40 µM | > 20 µM | > 20 µM |
| > 250 °C | > 50% | 57.37 ± 1.82% | 0.66 ± 0.13 µM | CNC(=O)c1ccsc1Nc1nc(Nc2ccc(Nc3c(NCCNC(=O)OC(C)(C)C)c(=O)c3=O)cc2)ncc1C(F)(F)F [6i, [2-(2-{4-[4-(3-Methylcarbamoyl-thiophen-2-ylamino)-5-trifluoromethyl-pyrimidin-2-ylamino]-phenylamino}-3,4-dioxo-cyclobut-1-enylamino)-ethyl]-carbamic acid tert-butyl ester] | 5.33 ± 0.47 µM | > 40 µM | 5.24 ± 0.51 µM | 3.11 ± 0.48 µM |
